Measurements reported in ChEMBL document CHEMBL2169877, “Antagonists of 5-HT₆ receptors. Substituted 3-(phenylsulfonyl)pyrazolo[1,5-a]pyrido[3,4-e]pyrimidines and 3-(phenylsulfonyl)pyrazolo[1,5-a]pyrido[4,3-d]pyrimidines-Synthesis and 'structure-activity' relationship” (Bioorg Med Chem Lett, 2012).
Activity calls are given as the source filed them. The rule behind the calls is not given here.

Tests used:
[1] = biological target: T1, 5-hydroxytryptamine receptor 6 (Homo sapiens, UniProt P50406); experiment: Antagonist activity at human recombinant 5HT6 receptor expressed in […] cells assessed as inhibition of serotonin-induced cAMP accumulation after 2 hrs; type: functional, cell-based, HEK293
T1 sequence (P50406 whole entry): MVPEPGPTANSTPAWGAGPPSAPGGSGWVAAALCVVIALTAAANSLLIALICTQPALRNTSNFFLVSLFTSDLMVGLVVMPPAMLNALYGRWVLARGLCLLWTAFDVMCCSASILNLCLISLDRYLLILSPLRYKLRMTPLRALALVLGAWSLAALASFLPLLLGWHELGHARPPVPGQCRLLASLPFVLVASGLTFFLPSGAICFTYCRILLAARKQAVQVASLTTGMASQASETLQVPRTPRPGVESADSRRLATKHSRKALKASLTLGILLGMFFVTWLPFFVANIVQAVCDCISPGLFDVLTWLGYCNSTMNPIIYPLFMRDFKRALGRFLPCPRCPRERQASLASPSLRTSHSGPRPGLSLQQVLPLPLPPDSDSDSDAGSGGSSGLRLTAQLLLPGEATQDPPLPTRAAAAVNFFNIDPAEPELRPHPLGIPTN

[2] = biological target: T1, 5-hydroxytryptamine receptor 6; experiment: Displacement of [3H]lysergic acid diethylamide from human recombinant 5HT6 receptor expressed in HeLa cells after 120 mins; type: cell-based
[3] = biological target: T2, 5-hydroxytryptamine receptor 2B (Homo sapiens, UniProt P41595); experiment: Agonist activity at human recombinant 5HT2B receptor expressed in HEK293 cells assessed as increase in intracellular calcium mobilization by Fluo4-based staining method; type: functional, cell-based
T2 sequence (P41595 whole entry): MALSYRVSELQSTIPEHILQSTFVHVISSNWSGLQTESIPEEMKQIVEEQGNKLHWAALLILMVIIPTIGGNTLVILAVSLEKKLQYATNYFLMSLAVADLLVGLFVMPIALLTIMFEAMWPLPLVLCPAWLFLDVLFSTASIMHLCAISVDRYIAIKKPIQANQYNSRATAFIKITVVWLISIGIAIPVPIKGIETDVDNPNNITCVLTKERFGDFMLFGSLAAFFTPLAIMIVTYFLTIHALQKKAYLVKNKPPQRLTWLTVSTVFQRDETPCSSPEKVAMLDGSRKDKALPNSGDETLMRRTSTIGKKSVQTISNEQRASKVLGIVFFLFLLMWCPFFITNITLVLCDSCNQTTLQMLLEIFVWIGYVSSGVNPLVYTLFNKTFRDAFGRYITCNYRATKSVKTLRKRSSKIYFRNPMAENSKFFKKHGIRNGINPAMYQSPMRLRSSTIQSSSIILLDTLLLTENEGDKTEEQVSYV

[4] = biological target: T2, 5-hydroxytryptamine receptor 2B; experiment: Antagonist activity at human recombinant 5HT2B receptor expressed in HEK293 cells assessed as inhibition of alphamethyl5HT-induced intracellular calcium mobilization by Fluo4-based staining method; type: functional, cell-based
[5] = biological target: Voltage-gated inwardly rectifying potassium channel KCNH2 (Homo sapiens, UniProt Q12809); experiment: Inhibition of human recombinant ERG channel expressed in […] cells after 3 to 8 mins by voltage clamp assay; type: cell-based
Sequence of Voltage-gated inwardly rectifying potassium channel KCNH2 (Q12809 whole entry): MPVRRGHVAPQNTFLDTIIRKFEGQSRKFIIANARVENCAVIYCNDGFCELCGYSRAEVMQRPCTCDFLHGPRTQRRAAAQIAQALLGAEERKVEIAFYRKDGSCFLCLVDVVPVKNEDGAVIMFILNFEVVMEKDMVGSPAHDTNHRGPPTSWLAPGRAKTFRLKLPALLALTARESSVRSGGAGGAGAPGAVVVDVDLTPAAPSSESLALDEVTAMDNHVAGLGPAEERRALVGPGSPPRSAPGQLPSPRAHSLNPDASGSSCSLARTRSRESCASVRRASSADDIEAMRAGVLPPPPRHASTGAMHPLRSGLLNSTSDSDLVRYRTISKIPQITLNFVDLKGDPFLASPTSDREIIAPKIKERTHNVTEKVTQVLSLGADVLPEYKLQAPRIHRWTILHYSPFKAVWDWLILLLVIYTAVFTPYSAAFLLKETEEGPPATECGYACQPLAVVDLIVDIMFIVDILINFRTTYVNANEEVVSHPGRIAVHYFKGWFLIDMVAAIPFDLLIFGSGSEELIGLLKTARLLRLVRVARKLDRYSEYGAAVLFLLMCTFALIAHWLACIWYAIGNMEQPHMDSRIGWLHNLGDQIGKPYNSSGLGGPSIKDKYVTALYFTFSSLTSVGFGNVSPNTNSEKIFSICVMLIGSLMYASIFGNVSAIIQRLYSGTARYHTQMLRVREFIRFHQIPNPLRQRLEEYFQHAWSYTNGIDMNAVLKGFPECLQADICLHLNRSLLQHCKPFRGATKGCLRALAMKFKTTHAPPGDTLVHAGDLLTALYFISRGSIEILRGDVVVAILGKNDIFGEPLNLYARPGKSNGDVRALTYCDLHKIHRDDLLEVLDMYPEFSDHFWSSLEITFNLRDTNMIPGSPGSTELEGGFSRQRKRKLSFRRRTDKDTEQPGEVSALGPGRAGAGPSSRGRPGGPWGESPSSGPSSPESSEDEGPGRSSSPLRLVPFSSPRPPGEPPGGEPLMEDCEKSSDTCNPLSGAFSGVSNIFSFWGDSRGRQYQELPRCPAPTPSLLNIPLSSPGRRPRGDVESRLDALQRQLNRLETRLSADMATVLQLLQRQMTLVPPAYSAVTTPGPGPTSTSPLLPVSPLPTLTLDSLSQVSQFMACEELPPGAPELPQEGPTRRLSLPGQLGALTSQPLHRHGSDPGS

[6] = biological target: T2, 5-hydroxytryptamine receptor 2B; experiment: Displacement of [3H]lysergic acid diethylamide from human recombinant 5HT2B receptor at 1 uM

| SMILES | Ki [1] [nM] | Ki [2] [nM] | also measured |
| --- | --- | --- | --- |
| CSc1nn2c3c(cnc2c1S(=O)(=O)c1ccc(F)cc1)CN(C)CC3 | – | 35.7 | – |
| CNc1nn2c3c(cnc2c1S(=O)(=O)c1ccccc1)CN(C)CC3 | 1.8 | 0.39 | Activity [3]: inactive; inhibition [4]: Dose-dependent effect; IC50 ([4]; read-out: IC50): 6160 nM; IC50 [5]: 54200 nM; Activity [6]: 50% |

Continued, in another order:

| Ki [1] [nM] | Ki [2] [nM] | SMILES | also measured |
| --- | --- | --- | --- |
| 2.1 | – | CNc1nn2cc3c(nc2c1S(=O)(=O)c1ccccc1)CCNC3 | – |
| – | 60.4 | Cc1nn2c3c(cnc2c1S(=O)(=O)c1ccccc1)CN(C)CC3 | – |
| 1160 | – | CSc1nn2cc3c(nc2c1S(=O)(=O)c1ccc(F)cc1)CCN(C)C3 | – |
